Experimental data from patent US20030055046A1, “Novel pyrido cyclohexenyl phenyl carboxamides tocolytic oxytocin receptor antagonists” (Wyeth, priority 2001, published 2003).
Structures can show the parent of a compound that is named as a salt.

biological target: T1, human vasopressin V2 receptor subtype (Homo sapiens, UniProt P30518); assay: Vasopressin binding in CHO cell membranes expressing human vasopressin V2 subtype receptors; conditions: 100 nM, [3H]arginine vasopressin
T1 construct: host or cells: CHO cells, stably transfected (pZeoSV vector)
From the text: Vasopressin Binding in Chinese Hamster Ovary Cell Membranes Expressing Human Vasopressin V2 Subtype Receptors
Chinese Hamster Ovary (CHO) cells stably transfected with the human V2 subtype receptors were obtained from M. Thibonnier, Case Western Reserve University School of Medicine, Cleveland, Ohio.
A. Passaging and Amplification of Cells:
CHO cells transfected with the human vasopressin V2 subtype receptors obtained from M. Thibonnier (pZeoSV vector) are allowed to grow to confluency (approx. >90%) in T-150 flasks under sterile conditions, in a cell culture medium consisting of F-12 Nutrient Mixture (HAM) with L-glutamine (Gibco Cat.# 11765-054) containing 15 mM HEPES (Gibco Cat.# 15630-080), 1% antibiotic/antimycotic (add 5 mL 100×, Gibco Cat.# 15240-062 per 500 mL F-12), 250 μg/mL Zeocin (add 1.25 mL of 100 mg/mL Invitrogen R-250-01 per 500 mL F-12) and 10% Fetal Bovine Serum (Qualified, heat inactivated, Gibco Cat.# 16140-063). The medium is removed by aspiration and the cells washed with 10 mL of Hank's Balanced Salt solution (Gibco Cat.# 14175-095). The salt solution is removed by aspiration and the cells trypsinized with 5 mL of trypsin-EDTA (0.05% trypsin, 0.53 mM EDTA-4Na, Gibco Cat.# 25300-070) for 1 min. The trypsin is removed by aspiration and the cells dislodged by tapping. Cell Culture medium (e.g. 30 mL for 1:30 split) is immediately added and mixed well to inactivate trypsin. 1 mL of detached cells is added to new culture flasks containing fresh Cell Culture medium (e.g. into 25 mL per T-150 flask), and mixed gently. The cells are incubated at 37° C. in 5% CO2. The medium is changed at 3 to 4 day interval (or as appropriate). The cells grow to confluency (approx. >75%-95%) within 7-8 days. All steps are done under sterile conditions.
The cells are washed twice gently with Hank's Balanced Salt solution (e.g. use 10 mL per T-150 flask). The excess solution is removed and the cells bathed for 15-30 min. in an enzyme-free Cell Dissociation Buffer (e.g. use 8 mL Hank's Based, Gibco Cat.# 13150-016 per T-150 flask) until cells are loosened. The contents are transferred to centrifuge tubes (50 mL) kept in an ice bath. All subsequent steps are done at 4° C. The tubes are centrifuged at 300×g for 15 min (1380 rpm on SORVAL, Model RT6000D, using the rotor for 50 mL tubes). The supernatant is discarded and the cells suspended in homogeneizing buffer(10 mM Tris-HCl containing 0.25 M sucrose and 1 mM EDTA, pH 7.4) ensuring that the volume of the buffer is about ten times the volume of the cell pellet. The cells are pooled into a centrifuge tube (50 mL) and homogenized with Polytron at setting 6 for 10 sec. The homogenate is transferred into a Potter-Elvjehm homogeneizer and homogenized with 3 strokes. The homogenate is centrifuged at 1500×g for 60 min at 4° C. (3100 rpm using SORVAL, model RT6000D, using the rotor for 50 mL tubes). The pellet is discarded. The supernatant is centrifuged at 100,000×g for 60 min. at 4° C. (Beckman L8-80M ultracentrifuge; spin at 37,500 rpm with rotor type 70 Ti for 50 mL tubes; 38,000 rpm with type 80Ti for 15 mL tubes; or 35,800 rpm with rotor type 45Ti). The supernatant is discarded and the pellet suspended in 3 to 4 mL of Tris buffer (50 mM TRIS-HCl, pH 7.4). The protein content is estimated by the Bradford or Lowry method. The volume of the membrane suspension is adjusted with the membrane buffer (50 mM Tris-HCl containing 0.1% BSA and 0.1 mM PMSF) to give 3.0 mg/mL (or as appropriate) of protein. The membranes are aliquoted and stored at −70° C.
C. Radioligand Binding Assay:
In wells of a 96-well format microtiter plate, is added 90, 110 or 130 μL (to make up a final volume of 200 μL) of assay buffer containing 50 mM of Tris-HCl (pH 7.4), […], 1 mg % aprotinin, 1 mg % leupeptin, 2 mg % 1,10-phenanthroline, 10 mg % trypsin inhibitor, and 0.1 mM PMSF. The inhibitors are added on the day of the experiment. […]

T1 sequence (P30518 whole entry): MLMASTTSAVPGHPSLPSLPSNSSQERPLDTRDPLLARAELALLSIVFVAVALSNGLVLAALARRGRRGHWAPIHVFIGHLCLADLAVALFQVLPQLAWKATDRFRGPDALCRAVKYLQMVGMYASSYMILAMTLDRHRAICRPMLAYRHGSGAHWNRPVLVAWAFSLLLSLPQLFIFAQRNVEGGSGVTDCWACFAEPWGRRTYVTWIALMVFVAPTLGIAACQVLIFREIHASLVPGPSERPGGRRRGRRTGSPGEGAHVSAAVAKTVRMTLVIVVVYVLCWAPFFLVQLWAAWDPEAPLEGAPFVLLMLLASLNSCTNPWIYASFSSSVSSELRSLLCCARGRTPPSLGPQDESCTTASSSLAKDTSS

| SMILES | V2 % inhibition @ 100 nM |
| --- | --- |
| Cc1cc(C(=O)N2Cc3ccc(C(=O)N4CCN(c5ccccn5)CC4)n3Cc3ccccc32)ccc1C1=CCCCC1 [Example 9, {10-[4-(1-Cyclohex-1-en-1-yl)-3-methylbenzoyl]-10,11-dihydro-5H-pyrrolo[2,1-c][1,4]benzodiazepin-3-yl}[4-(2-pyridinyl)-1-piperazinyl]methanone] | 21% |
| CC1=C(c2ccc(C(=O)N3Cc4ccc(C(=O)N(C)Cc5cccnc5)n4Cc4ccccc43)cc2C)CCC[C@H]1O.O=C(O)C(O)C(O)C(=O)O [Example 4, 10-[4-((3R)-3-Hydroxy-2-methyl-cyclohex-1-en-1-yl)-3-methyl-benzoyl]-10,11-dihydro-5H-pyrrolo[2,1-c][1,4]benzodiazepine-3-carboxylic acid methyl-pyridin-3-yl methyl-amide L-(+)-tartaric acid salt] | 20% |
| Cc1cc(C(=O)N2Cc3ccc(C(=O)NCc4ccccn4)n3Cc3ccccc32)ccc1C1=CCCCC1 [Example 5, 10-[4-(1-Cyclohex-1-en-1-yl)-3-methylbenzoyl]-N-(2-pyridinylmethyl)-10,11-dihydro-5H-pyrrolo[2,1-c][1,4]benzodiazepine-3-carboxamide] | 12% |
| Cc1cc(C(=O)N2Cc3ccc(C(=O)NCc4ccncc4)n3Cc3ccccc32)ccc1C1=CCCCC1 [Example 10, 10-[4-(1-Cyclohex-1-en-1-yl)-3-methylbenzoyl]-N-(4-pyridinylmethyl)-10,11-dihydro-5H-pyrrolo[2,1-c][1,4]benzodiazepine-3-carboxamide] | 15% |
| Cc1cc(C(=O)N2Cc3ccc(C(=O)NCc4cccnc4)n3Cc3ccccc32)ccc1C1=CCCCC1 [Example 6, 10-[4-(1-Cyclohex-1-en-1-yl)-3-methylbenzoyl]-N-(3-pyridinylmethyl)-10,11-dihydro-5H-pyrrolo[2,1-c][1 ,4]benzodiazepine-3-carboxamide] | 3% |
| Cc1cc(C(=O)N2Cc3ccc(C(=O)N(C)Cc4cccnc4)n3Cc3ccccc32)ccc1C1=CCCCC1 [Example 11, 10-[4-(1-Cyclohex-1-en-1-yl)-3-methylbenzoyl]-N-methyl-N-(3-pyridinylmethyl)-10,11-dihydro-5H-pyrrolo[2,1-c][1,4]benzodiazepine-3-carboxamide] | 17% |
| Cc1cc(C(=O)N2Cc3ccc(C(=O)N(C)CCc4ccncc4)n3Cc3ccccc32)ccc1C1=CCCCC1 [Example 13, 10-[4-(1-Cyclohex-1-en-1-yl)-3-methylbenzoyl]-N-methyl-N-[2-(4-pyridinyl)ethyl]-10,11-dihydro-5H-pyrrolo[2,1-c][1,4]benzodiazepine-3-carboxamide] | 12% |
| CC1=C(c2ccc(C(=O)N3Cc4ccc(C(=O)N(C)Cc5cccnc5)n4Cc4ccccc43)cc2C)CCC[C@H]1O [Example 3, 10-[4-((3R)-3-Hydroxy-2-methyl-cyclohex-1-en-1-yl)-3-methyl-benzoyl]-10,11-dihydro-5H-pyrrolo[2,1-c][1,4]benzodiazepine-3-carboxylic acid methyl-pyridin-3-yl methyl-amide] | 7% |
| Cc1cc(C(=O)N2Cc3ccc(C(=O)N4CCN(c5ccncc5)CC4)n3Cc3ccccc32)ccc1C1=CCCCC1 [Example 12, {10-[4-(1-Cyclohex-1-en-1-yl)-3-methylbenzoyl]-10,11-dihydro-5H-pyrrolo[2,1--c][1,4]benzodiazepin-3-yl}[4-(4-pyridinyl)-1-piperazinyl]methanone] | 21% |
| Cc1cc(C(=O)N2Cc3ccc(C(=O)NCCc4ccccn4)n3Cc3ccccc32)ccc1C1=CCCCC1 [Example 7, 10-[4-(1-Cyclohex-1-en-1-yl)-3-methylbenzoyl]-N-[2-(2-pyridinyl)ethyl]-10,11-pyrrolo[2,1-c][1,4]benzodiazepine-3-carboxamide] | 6% |
| Cc1cc(C(=O)N2Cc3ccc(C(=O)N(C)CCc4ccccn4)n3Cc3ccccc32)ccc1C1=CCCCC1 [Example 8, 10-[4-(1-Cyclohex-1-en-1-yl)-3-methylbenzoyl]-N-methyl-N-[2-(2-pyridinyl)ethyl]-10,11-dihydro-5H-pyrrolo[2,1-c][1 ,4]benzodiazepine-3-carboxamide] | 16% |

same assay, conditions: [3H]arginine vasopressin, value in parentheses

| SMILES | IC50 |
| --- | --- |
| COc1cc(C2=CCCCC2)c(Cl)cc1C(=O)N1Cc2ccc(C(=O)N(C)Cc3cccnc3)n2Cc2ccccc21 [Example 1, 10-(5-Chloro-4-cyclohex-1-en-1-yl-2-me3thoxybenzoyl)-N-methyl-N-(pyridin-3-ylmethyl)-10,11-dihydro-5H-pyrrolo [2,1-c][1,4]benzodiazepine-3-carboxamide] | 1190 nM |
| COc1cc(C2=CCCCC2)c(Cl)cc1C(=O)N1Cc2ccc(C(=O)N(C)Cc3cccnc3)n2Cc2ccccc21 [Example 2, 10-(5-Chloro-4-cyclohex-1-en-1-yl-2-methoxybenzoyl)-N-methyl-N-(pyridin-3-ylmethyl)-10,11-dihydro-5H-pyrrolo[2,1-c][1,4]benzodiazepine-3-carboxamide L-(+)-tartaric acid salt hemihydrate] | 1420 nM |

system: not given; assay: not given; conditions: not given

| SMILES | melting point |
| --- | --- |
| COc1cc(C2=CCCCC2)c(Cl)cc1C(=O)N1Cc2ccc(C(=O)N(C)Cc3cccnc3)n2Cc2ccccc21 [Example 1, 10-(5-Chloro-4-cyclohex-1-en-1-yl-2-me3thoxybenzoyl)-N-methyl-N-(pyridin-3-ylmethyl)-10,11-dihydro-5H-pyrrolo [2,1-c][1,4]benzodiazepine-3-carboxamide] | 178 to 179 °C |
